In patent US11485741B2, “Macrocyclic toll-like receptor 7 (TLR7) agonists” (BRISTOL-MYERS SQUIBB COMPANY, priority 2018, dated 2022):

How the values were obtained:
interleukin 6 (IL-6) = test: Interleukin 6 induction assay in human whole blood (AlphaLISA); type: cell-based; settings: Homo sapiens, 20 h, 20 h at 37° C., 100% set by resiquimod reference at 10 μM, average if more than one assay, read-out: IL-6 Induction EC50 (nM) (normalized 10 μM)
Excerpt: Table A presents biological activity data for compounds disclosed herein. One set of data relates TLR7 agonism activity using the HEK-Blue™ TLR7 reporter assay, as described in Example 11 hereinbelow. Another set of data relates to the induction of interleukin 6 (IL-6), a cytokine that plays an important role in the TLR7 pathway. […] In some instances, more that one TLR7 agonism or IL-6 induction assay was made; if so, the reported value is an average. This example describes a method for assaying interleukin 6 (IL 6) induction by compounds disclosed in this specification. Compounds suspended in DMSO were transferred to individual wells of a Matrix Technologies clear, V-bottom 384-well plate using ECHO acoustic liquid handling technology (25 nL per well). Human whole-blood samples (25 uL) were added to each well using a CyBio FeliX liquid handling instrument and the plate was shaken on a plate shaker for three minutes before incubating the reaction mixtures at 37° C. for 20 h. Basel RPMI 1640 medium (supplemented with L-glutamine) was then added to each well (25 uL per well) prior to liberating plasma from each sample by centrifugation (450×g, 5 min, ambient temperature). Treated plasma samples (3 uL) were subsequently transferred to individual wells of a white, shallow, 384-well ProxiPlate (PerkinElmer) using the FeliX liquid handling instrument and their IL6 levels were measured using AlphaLISA technology as described by the manufacturer (PerkinElmer).

human TLR7 = biological target: T1, human TLR7 (Homo sapiens, UniProt Q9NYK1); test: HEK-Blue TLR7 reporter assay (SEAP reporter); type: cell-based; settings: HEK-Blue TLR7 cells, 18 h treatment, SEAP readout; average if more than one assay; read-out: TLR7 Agonism HEK Blue ™ Assay EC50
T1 construct: host or cells: HEK-Blue TLR7 cells (engineered human embryonic kidney cells)
T1 sequence (Q9NYK1 27-1049): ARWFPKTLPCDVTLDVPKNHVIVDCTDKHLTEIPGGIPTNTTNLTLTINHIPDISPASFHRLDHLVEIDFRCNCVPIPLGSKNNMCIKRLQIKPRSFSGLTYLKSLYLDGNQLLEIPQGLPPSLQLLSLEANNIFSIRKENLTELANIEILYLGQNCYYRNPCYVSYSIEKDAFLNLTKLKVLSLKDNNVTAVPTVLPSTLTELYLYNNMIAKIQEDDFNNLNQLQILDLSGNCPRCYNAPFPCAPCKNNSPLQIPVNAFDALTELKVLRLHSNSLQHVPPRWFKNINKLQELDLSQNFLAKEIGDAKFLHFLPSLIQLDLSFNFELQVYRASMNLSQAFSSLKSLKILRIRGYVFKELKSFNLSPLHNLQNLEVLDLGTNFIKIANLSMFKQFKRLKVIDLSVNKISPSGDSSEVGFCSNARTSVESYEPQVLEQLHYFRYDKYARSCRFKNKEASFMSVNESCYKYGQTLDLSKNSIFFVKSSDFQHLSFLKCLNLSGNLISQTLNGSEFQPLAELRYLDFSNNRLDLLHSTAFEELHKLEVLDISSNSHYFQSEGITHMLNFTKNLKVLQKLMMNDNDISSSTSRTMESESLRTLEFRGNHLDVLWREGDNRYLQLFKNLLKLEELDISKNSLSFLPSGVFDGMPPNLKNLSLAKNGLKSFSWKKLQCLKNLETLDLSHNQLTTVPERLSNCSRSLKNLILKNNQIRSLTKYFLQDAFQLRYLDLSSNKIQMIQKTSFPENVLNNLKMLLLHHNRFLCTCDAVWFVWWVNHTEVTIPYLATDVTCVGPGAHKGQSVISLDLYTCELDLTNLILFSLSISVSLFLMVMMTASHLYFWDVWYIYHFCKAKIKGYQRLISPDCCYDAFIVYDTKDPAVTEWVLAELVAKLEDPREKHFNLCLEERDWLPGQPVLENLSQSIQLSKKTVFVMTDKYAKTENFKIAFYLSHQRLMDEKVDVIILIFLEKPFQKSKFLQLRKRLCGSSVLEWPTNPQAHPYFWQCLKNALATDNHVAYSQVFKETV
Excerpt: Table A presents biological activity data for compounds disclosed herein. One set of data relates TLR7 agonism activity using the HEK-Blue™ TLR7 reporter assay, as described in Example 11 hereinbelow. Another set of data relates to the induction of interleukin 6 (IL-6), a cytokine that plays an important role in the TLR7 pathway. […] In some instances, more that one TLR7 agonism or IL-6 induction assay was made; if so, the reported value is an average.
This example describes a method for assaying TLR7 agonist activity of the compounds disclosed in this specification.
HEK-Blue™ TLR7 cells were added to each well of a 384-well tissue-culture plate (15,000 cells per well) and incubated 16-18 h at 37° C., 5% CO2. Compounds (100 nl) were dispensed into wells containing the HEK-Blue™ TLR cells and the treated cells were incubated at 37° C., 5% CO2. After 18 h treatment ten microliters of freshly-prepared Quanti-Blue™ reagent (Invivogen) was added to each well, incubated for 30 min (37° C., 5% CO2) and SEAP levels measured using an Envision plate reader (OD=620 nm). […] EC50's can be determined with software such as Graphpad Prism™.

Structure (SMILES) | EC50 (interleukin 6 (IL-6)) | EC50 (human TLR7)
Nc1nc2nc3c1nc(O)n3Cc1cc(cc(OC3CCNCC3)c1)C/C=C/CCO2 [IIc-02] | 200 nM | 23 nM
Nc1nc2nc3c1nc(O)n3Cc1ccc(-c3ccc(CNC4CCC4)cc3)c(c1)OCCCO2 [IIb-20] | 150 nM | 56 nM
Nc1nc2nc3c1nc(O)n3Cc1ccc(-c3ccc(CNC4CCC4)cc3)c(c1)C/C=C\CCCO2 [IIb-17] | 0.99 nM | 0.91 nM
Nc1nc2nc3c1nc(O)n3Cc1ccc(-c3ccc(C(=O)NC4CNC4)cc3)c(c1)C/C=C\CCO2 [IIb-30] | 36 nM | 1.6 nM
Nc1nc2nc3c1nc(O)n3Cc1ccc(-c3ccc(CNC4CCC4)nc3)c(c1)C/C=C/CCO2 [IIb-05] | 0.62 nM | 0.22 nM
Nc1nc2nc3c1nc(O)n3Cc1ccc(Oc3cccc(CNC4CCC4)c3)c(c1)C/C=C\CCO2 [IIa-07] | 2.9 nM | 4.2 nM
Nc1nc2nc3c1nc(O)n3Cc1cc(cc(Oc3ccc(CNC4CC4)cc3)c1)C/C=C/CCO2 [IIa-18] | 32 nM | 10 nM
Nc1nc2nc3c1nc(O)n3Cc1ccc(-c3ccc(CNC4CC(O)C4)cc3)c(c1)C/C=C\CCO2 (centres unmarked) [IIb-22] | 1.4 nM | 0.42 nM
Nc1nc2nc3c1nc(O)n3Cc1ccc(Oc3cccc(CNC4CC4)c3)c(c1)CCCCCO2 [IIa-12] | 110 nM | 29 nM
Nc1nc2nc3c1nc(O)n3Cc1ccc(OCC(=O)NC3CNC3)c(c1)C/C=C/CCO2 [IIe-02] | 1100 nM | 70 nM
Nc1nc2nc3c1nc(O)n3Cc1ccc(-c3ccc(CNC4CCC4)cc3)c(c1)C/C=C\CCO2 [IIb-11] | 0.68 nM | 0.33 nM
Nc1nc2nc3c1nc(O)n3Cc1ccc(OC3CCNCC3)c(c1)C/C=C/CCO2 [IIc-01] | 5 nM | 3.7 nM
Nc1nc2nc3c1nc(O)n3Cc1ccc(-c3ccc(CNC4CCC4)cc3)c(c1)C/C=C/CCO2 [IIb-10] | 0.41 nM | 1.1 nM
Nc1nc2nc3c1nc(O)n3Cc1ccc(-c3cc(CNC4CCC4)[nH]n3)c(c1)C/C=C\CCO2 [IIb-15] | 4.7 nM | 0.65 nM
Nc1nc2nc3c1nc(O)n3Cc1ccc(O)c(c1)C/C=C\CCO2 [Compound B4, reference compound] | 960 nM | 17 nM
Nc1nc2nc3c1nc(O)n3Cc1ccc(O)c(c1)C/C=C/CCO2 [Compound B3, reference compound] | 400 nM | 68 nM
COCCNCc1ccc(Oc2ccc3cc2C/C=C/CCOc2nc(N)c4nc(O)n(c4n2)C3)cc1 [IIa-09] | 1.9 nM | 2.2 nM
Nc1nc2nc3c1nc(O)n3Cc1ccc(Oc3cccc(CNC4CC4)c3)c(c1)C/C=C/CCO2 [IIa-03] | 47 nM | 5.3 nM
Nc1nc2nc3c1nc(O)n3Cc1ccc(-c3ccc(CNC4CC(O)C4)cc3)c(c1)C/C=C/CCO2 (centres unmarked) [IIb-23] | 2 nM | 0.81 nM
Nc1nc2nc3c1nc(O)n3Cc1cc(cc(Oc3ccc(CNC4CC4)cc3)c1)C/C=C\CCO2 [IIa-15] | 57 nM | 9.2 nM

Structure (SMILES) | EC50 (interleukin 6 (IL-6)) | EC50 (human TLR7)
Nc1nc2nc3c1nc(O)n3Cc1ccc(Oc3ccc(CNC4CC4)cc3)c(c1)C/C=C\CCO2 [IIa-04] | 4.4 nM | 0.91 nM
Nc1nc2nc3c1nc(O)n3Cc1cc(cc(Oc3ccc(CNC4CCC4)cc3)c1)CCCCCO2 [IIa-16] | 250 nM | 42 nM
Nc1nc2nc3c1nc(O)n3Cc1ccc(Oc3cccc(C(=O)NC4CNC4)c3)c(c1)C/C=C\CCO2 [IIa-20] | 91 nM | 15 nM
Nc1nc2nc3c1nc(O)n3Cc1ccc(-c3cn[nH]c3)c(c1)C/C=C/CCO2 [IIb-06] | 570 nM | 21 nM
Nc1nc2nc3c1nc(O)n3Cc1ccc(-c3cnn(CCN4CCOCC4)c3)c(c1)C/C=C/CCO2 [IIb-37] | 180 nM | 3.8 nM
Nc1nc2nc3c1nc(O)n3Cc1ccc(-c3ccc(C(=O)NC4CNC4)cc3)c(c1)C/C=C/CCO2 [IIb-32] | 32 nM | 4.1 nM
Nc1nc2nc3c1nc(O)n3Cc1ccc(-c3cc(C(=O)NCCCN4CCCC4=O)[nH]n3)c(c1)C/C=C/CCO2 [IIb-40] | 160 nM | 14 nM
COC(=O)CNCc1ccc(Oc2ccc3cc2C/C=C/CCOc2nc(N)c4nc(O)n(c4n2)C3)cc1 [IIa-10] | 50 nM | 4.3 nM
CC(=O)N1CC(NCc2ccc(-c3ccc4cc3C/C=C\CCOc3nc(N)c5nc(O)n(c5n3)C4)cc2)C1 [IIb-27] | 4 nM | 0.62 nM
Nc1nc2nc3c1nc(O)n3Cc1ccc(-c3ccc(CNC4CCC4)cc3)c(c1)CCCCCCO2 [IIb-18] | 34 nM | 3.8 nM
Nc1nc2nc3c1nc(O)n3Cc1ccc(-c3ccc(CNC4CCC4)cc3)c(c1)C/C=C/CCCO2 [IIb-16] | 3.6 nM | 1.2 nM
Nc1nc2nc3c1nc(O)n3Cc1ccc(-c3ccc(CNC4CCC4)cc3)c(c1)CCCCCO2 [IIb-12] | 13 nM | 4.2 nM
Nc1nc2nc3c1nc(O)n3Cc1ccc(-c3cnn(CCNC4CC4)c3)c(c1)CCCCCO2 [IIb-03] | 65 nM | 2.9 nM
Nc1nc2nc3c1nc(O)n3Cc1ccc(-c3cnn(CCNC4CCC4)c3)c(c1)C/C=C\CCO2 [IIb-09] | 2.1 nM | 0.35 nM
Nc1nc2nc3c1nc(O)n3Cc1ccc(-c3ccc(CNC4CC4)nc3)c(c1)C/C=C/CCO2 [IIb-04] | 10 nM | 0.28 nM
Nc1nc2nc3c1nc(O)n3Cc1ccc(-c3cccc(C(=O)NC4CNC4)c3)c(c1)C/C=C\CCO2 [IIb-29] | 24 nM | 3.2 nM
Nc1nc2nc3c1nc(O)n3Cc1ccc(-c3ccc(CNC4CCC4)cc3)c(c1)OCCCCO2 [IIb-19] | 1.4 nM | 1 nM
Nc1nc2nc3c1nc(O)n3Cc1ccc(Nc3cccc(CNC4CCC4)c3)c(c1)C/C=C/CCO2 [IId-01] | 60 nM | 15 nM
Nc1nc2nc3c1nc(O)n3Cc1ccc(Oc3ccc(C(=O)NC4CNC4)cc3)c(c1)C/C=C\CCO2 [IIa-19] | 95 nM | 25 nM
Nc1nc2nc3c1nc(O)n3Cc1ccc(Oc3ccc(CNC4CCC4)cc3)c(c1)C/C=C\CCO2 [IIa-06] | 2.2 nM | 1 nM
